Ends that are not written are not given here.
Legend:
IL-1R1 = target: T1, IL-1R1 (Homo sapiens, UniProt P14778); experiment: Biolayer interferometry kinetic assay, binding to control receptor IL-1R1; conditions: read-out: ka (association constant)
T1 sequence (P14778 18-569): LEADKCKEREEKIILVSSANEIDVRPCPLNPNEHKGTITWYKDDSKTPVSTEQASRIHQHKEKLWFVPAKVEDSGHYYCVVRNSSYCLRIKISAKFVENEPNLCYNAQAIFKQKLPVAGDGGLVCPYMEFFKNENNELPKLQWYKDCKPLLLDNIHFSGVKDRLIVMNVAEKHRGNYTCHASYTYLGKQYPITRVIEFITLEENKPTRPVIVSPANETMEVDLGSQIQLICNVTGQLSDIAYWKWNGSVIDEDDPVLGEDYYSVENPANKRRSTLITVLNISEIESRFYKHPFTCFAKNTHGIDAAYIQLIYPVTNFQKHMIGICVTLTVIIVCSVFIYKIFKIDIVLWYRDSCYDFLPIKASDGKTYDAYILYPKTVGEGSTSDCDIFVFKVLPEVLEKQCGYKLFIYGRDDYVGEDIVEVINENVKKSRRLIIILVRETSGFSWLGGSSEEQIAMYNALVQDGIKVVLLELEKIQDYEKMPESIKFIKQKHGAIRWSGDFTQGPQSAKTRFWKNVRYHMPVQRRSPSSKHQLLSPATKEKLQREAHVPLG
Protocol: (§1) Biolayer interferometry (BLI) was applied to analyze peptide–receptor protein interactions. BLI was performed with a ForteBio Octet RED96e System (Sartorius AG, Göttingen, Germany) by using high-precision streptavidin and biosensors. The biosensors were hydrated in a plate for 15 min and then loaded with 10 μg/mL recombinant receptor human IL-10Ra protein and incubated for 150 s. […] After the association step, the biosensor was shifted to the dissociation buffer, phosphate-buffered saline (PBS) with 0.05% Tween20, for dissociation. Dissociation was recorded until equilibrium was reached (120 s).
To measure the binding ability of the designed and negative control peptides (NM25, NK20, NK20a, and control scramble peptide CG20) to the receptor IL-10Ra in vitro, BLI experiments were performed. […] When binding with IL-10Ra, the association constant (ka) of NK20 and NK20a was 1.02 × 10^4 (1/Ms) and 8.14 × 10^3 (1/Ms), respectively. […] The equilibrium dissociation constant (KD) of NK20a interactions with IL-1R1was approximately 2000 times greater than that with IL-10Ra, and the calculated dissociation constant of NK20a interactions with IL-1R1 was to be 5000 times greater than that with IL-10Ra interactions (Table 2). […]
Fig. 3 BLI kinetic assays of the designed peptides binding to the receptor IL-10Ra. […] Dissociation was recorded at 120 s after the binding started (black dotted line).

[1] = target: T2, recombinant receptor human IL-10Ra protein (Homo sapiens, UniProt Q13651); experiment: Biolayer interferometry kinetic assay, binding to IL-10Ra; conditions: read-out: ka (association constant)
T2 sequence (Q13651 22-578): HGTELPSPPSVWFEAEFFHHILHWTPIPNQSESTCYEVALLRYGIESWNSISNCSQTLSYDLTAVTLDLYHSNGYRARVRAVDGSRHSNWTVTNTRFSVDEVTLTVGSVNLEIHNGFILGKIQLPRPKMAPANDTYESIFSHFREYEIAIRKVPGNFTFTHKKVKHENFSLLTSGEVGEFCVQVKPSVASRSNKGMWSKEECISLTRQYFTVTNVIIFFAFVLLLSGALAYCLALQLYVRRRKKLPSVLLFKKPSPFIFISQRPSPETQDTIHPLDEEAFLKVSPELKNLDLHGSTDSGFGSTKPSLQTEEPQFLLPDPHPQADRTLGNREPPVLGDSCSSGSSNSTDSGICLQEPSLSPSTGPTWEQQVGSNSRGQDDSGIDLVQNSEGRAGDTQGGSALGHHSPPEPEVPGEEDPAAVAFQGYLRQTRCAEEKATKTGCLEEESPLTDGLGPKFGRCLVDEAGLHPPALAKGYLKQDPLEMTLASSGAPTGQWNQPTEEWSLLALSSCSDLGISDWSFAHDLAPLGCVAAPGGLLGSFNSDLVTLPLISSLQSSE
Protocol: as §1
To measure the binding ability of the designed and negative control peptides (NM25, NK20, NK20a, and control scramble peptide CG20) to the receptor IL-10Ra in vitro, BLI experiments were performed. […] When binding with IL-10Ra, the association constant (ka) of NK20 and NK20a was 1.02 × 10^4 (1/Ms) and 8.14 × 10^3 (1/Ms), respectively. The ka values of the refined peptides were approximately 12-fold higher than that of NM25. […] The equilibrium dissociation constant (KD) of NK20a interactions with IL-1R1was approximately 2000 times greater than that with IL-10Ra, and the calculated dissociation constant of NK20a interactions with IL-1R1 was to be 5000 times greater than that with IL-10Ra interactions (Table 2). […] As a result, NK20a was used for further investigations in this study.
Fig. 3 BLI kinetic assays of the designed peptides binding to the receptor IL-10Ra. Wavelength shift curves show the association and dissociation of the designed peptides (a) NM25, (b) NK20, (c) NK20a, (d) CG20 binding to the IL-10 receptor, and (e) NK20a binding to a control receptor IL-1R1 at various concentrations. Dissociation was recorded at 120 s after the binding started (black dotted line).

## NMLRNLRNAFSRVKTFFQMK [NK20a]
IL-1R1
  kon: 18300 M⁻¹ s⁻¹
[1]
  kon: 8140 M⁻¹ s⁻¹
